Values of other authors, collected in US8067367B2, “Methods of increasing platelet and hematopoietic stem cell production” (Janssen Pharmaceutica, N.V., priority 2002, dated 2011).

Key:
[1] = test system: HSCs in adult bone marrow; settings: exogenously added TPO; after bone marrow transplantation
CD34+ stem cells = settings: rhTPO with G-CSF; pilot study
CD34+ cells = settings: normal volunteers
[2] = single dose of TPO, cancer patients

Q: Which results are given for Thrombopoietin [TPO]?
A: HSC expansion defect in tpo−/− mice [1]: rescued this defect; mobilization and apheresis yields of CD34+ stem cells in response to G-CSF (CD34+ stem cells): able to enhance the mobilization and apheresis yields of CD34+ stem cells; increase in circulating CD34+ cells (circulating CD34+ cells; 3-7 days after a single dose of TPO, cancer patients with otherwise normal hematopoiesis): 6 fold; increase of committed megakaryocytic subfraction (CD34+CD41+CD14−) (circulating CD34+ cells; [2]): ~15 fold; increase of stem cell enriched subfraction (CD34+ Thy+Lin−) (circulating CD34+ cells; [2]): ~9 fold; CD34+ cells in the peripheral blood (CD34+ cells): 16×10^3 cells/ml
